In article PMC6749346, “Synthesis of Isorhamnetin-3-O-Rhamnoside by a Three-Enzyme (Rhamnosyltransferase, Glycine Max Sucrose Synthase, UDP-Rhamnose Synthase) Cascade Using a UDP-Rhamnose Regeneration System” (Molecules, 2019):

T1: rhamnosyltransferase 78D1 (Arabidopsis thaliana, UniProt Q9S9P6)
T1 construct: gene UGT78D1; codon-optimised synthetic gene in pET-28a (BamHI/EcoRI), E. coli BL21(DE3), Ni-NTA purified; theoretical monomer mass 50019 Da
T1 sequence (Q9S9P6 1-453): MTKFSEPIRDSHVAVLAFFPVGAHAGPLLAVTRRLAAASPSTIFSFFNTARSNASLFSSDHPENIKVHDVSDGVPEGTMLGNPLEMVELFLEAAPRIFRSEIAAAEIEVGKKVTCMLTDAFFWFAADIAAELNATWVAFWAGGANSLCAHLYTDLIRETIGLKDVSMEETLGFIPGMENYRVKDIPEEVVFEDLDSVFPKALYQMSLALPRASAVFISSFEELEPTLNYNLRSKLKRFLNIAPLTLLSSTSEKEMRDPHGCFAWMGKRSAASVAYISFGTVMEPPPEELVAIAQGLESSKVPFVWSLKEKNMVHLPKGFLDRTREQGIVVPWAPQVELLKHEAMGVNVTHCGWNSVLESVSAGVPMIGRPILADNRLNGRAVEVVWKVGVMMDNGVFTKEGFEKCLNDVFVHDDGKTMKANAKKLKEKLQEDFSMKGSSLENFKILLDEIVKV


Key:
[1] = biological target: T1, rhamnosyltransferase 78D1; assay: HPLC activity assay with […] UDP, […] min pre-incubation; format: biochemical; details: inhibitor; UDP-rhamnose donor, 0.5 mM isorhamnetin; 50 mM phosphate pH 7.5; 35 °C
[2] = substrate: COc1cc(-c2oc3cc(O)cc(O)c3c(=O)c2O)ccc1O; assay: HPLC of isorhamnetin-3-O-rhamnoside formation, initial rates; format: biochemical, Arabidopsis thaliana; details: co-substrate excess UDP-rhamnose, 50 mM phosphate pH 7.5, 35 °C

Molecule	% activity [1]	Km [2] [µM]
O=c1ccn([C@@H]2O[C@H](COP(=O)(O)OP(=O)(O)O)[C@@H](O)[C@H]2O)c(=O)[nH]1 [UDP]	The enzyme activity was inhibited when the concentration of UDP was gradually increased	–
rhamnosyltransferase 78D1 (Arabidopsis thaliana) (protein, codon-optimised synthetic gene in pET-28a (BamHI/EcoRI), E. coli BL21(DE3), Ni-NTA purified; theoretical monomer mass 50019 Da) MTKFSEPIRDSHVAVLAFFPVGAHAGPLLAVTRRLAAASPSTIFSFFNTARSNASLFSSDHPENIKVHDVSDGVPEGTMLGNPLEMVELFLEAAPRIFRSEIAAAEIEVGKKVTCMLTDAFFWFAADIAAELNATWVAFWAGGANSLCAHLYTDLIRETIGLKDVSMEETLGFIPGMENYRVKDIPEEVVFEDLDSVFPKALYQMSLALPRASAVFISSFEELEPTLNYNLRSKLKRFLNIAPLTLLSSTSEKEMRDPHGCFAWMGKRSAASVAYISFGTVMEPPPEELVAIAQGLESSKVPFVWSLKEKNMVHLPKGFLDRTREQGIVVPWAPQVELLKHEAMGVNVTHCGWNSVLESVSAGVPMIGRPILADNRLNGRAVEVVWKVGVMMDNGVFTKEGFEKCLNDVFVHDDGKTMKANAKKLKEKLQEDFSMKGSSLENFKILLDEIVKV	–	181
